According to patent US9737504B2, “Dihydroorotic and acid dehydrogenase inhibitor” (NAI INC., priority 2012, dated 2017):
Like-named read-outs stand apart in the source and are kept apart here.

Assays:
human DHOD [1] = target: T1, human DHOD (Homo sapiens, UniProt Q02127); assay: Measurement of DHOD inhibitory activity (DCIP reduction, end point assay); type: biochemical; details: for inhibition at 0.2 µM: read-out: DHOD inhibition rate (%) 200 nM, 200 nM compound; for IC50: read-out: IC50 (nM) human DHOD (HsDHOD)
T1 sequence (Q02127 whole entry): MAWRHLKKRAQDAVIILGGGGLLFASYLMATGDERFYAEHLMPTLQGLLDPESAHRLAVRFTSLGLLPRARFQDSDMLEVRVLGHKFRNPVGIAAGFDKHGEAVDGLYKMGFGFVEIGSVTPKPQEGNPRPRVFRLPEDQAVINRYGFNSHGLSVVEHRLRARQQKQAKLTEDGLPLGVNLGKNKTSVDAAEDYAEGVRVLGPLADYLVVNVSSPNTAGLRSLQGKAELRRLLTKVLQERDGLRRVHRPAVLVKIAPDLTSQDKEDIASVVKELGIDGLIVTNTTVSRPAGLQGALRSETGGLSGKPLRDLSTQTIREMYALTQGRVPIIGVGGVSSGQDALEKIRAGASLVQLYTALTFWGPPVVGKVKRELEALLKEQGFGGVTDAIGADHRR
Method: The compounds of the present invention were used and measured for their DHOD inhibitory activity at concentrations of 200 nM and 1000 nM.
Reduction of DCIP was measured at 600 nm over 20 minutes.

[2] = system: DLD-1 cells (human colorectal cancer cells); assay: Inhibitory effect on DLD-1 cells, control vs hypoxic and subnutritional conditions; type: cell-based; details: for IC50: Homo sapiens
Method: (§1) For these reasons, cells of colorectal and pancreatic cancers, each being regarded as intractable, were used to test the inhibitory effect of compounds under hypoxic and subnutritional conditions. Moreover, the same test was also performed on normal skin cells.
The cells used were two types of cancer cells, i.e., DLD-1 cells (human colorectal cancer cells) and Panc-1 cells (human pancreatic cells), as well as HDF cells (human dermal fibroblast cells). Culture conditions were set as follows: 21% oxygen with glucose and […] (10% FBS) for the control group, and 1% oxygen without glucose and […] (10% FBS) for the hypoxic and subnutritional group. The results obtained are shown in Tables 3, 4 and 5, as well as FIGS. 1, 2 and 3.

bovine complex II-III = assay: Inhibition of bovine complex II-III; type: biochemical
human DHOD [3] = target: T1, human DHOD; assay: Measurement of DHOD inhibitory activity (DCIP reduction, end point assay); type: biochemical; details: read-out: DHOD inhibition rate (%) 100 nM; 100 nM compound
KM-12 = assay: JFCR39 cancer cell growth inhibition test, KM-12; type: cell-based; details: Homo sapiens, KM12; KM-12, Co (Colon)
OVCAR-8 = assay: JFCR39 cancer cell growth inhibition test, OVCAR-8; type: cell-based; details: Homo sapiens; OVCAR-8, Ov (Ovarian)
[4] = system: HDF cells (human dermal fibroblast cells); assay: Inhibitory effect on HDF cells, control vs hypoxic and subnutritional conditions; type: cell-based; details: for Selectivity = 21% glc(+)gln(+) IC50/1% glc(−)gln(−) IC50: HDF; for IC50: Homo sapiens, HDF normal skin cells
Method: as §1
The cells used were two types of cancer cells, i.e., DLD-1 cells (human colorectal cancer cells) and Panc-1 cells (human pancreatic cells), as well as HDF cells (human dermal fibroblast cells).

L0X-IMVI = assay: JFCR39 cancer cell growth inhibition test, L0X-IMVI; type: cell-based; details: Homo sapiens, Me (Melanoma)
MKN74 = assay: JFCR39 cancer cell growth inhibition test, MKN74; type: cell-based; details: Homo sapiens, MKN-74; MKN74, St (Stomac)
HCC2998 = assay: JFCR39 cancer cell growth inhibition test, HCC2998; type: cell-based; details: Homo sapiens, HCC 2998; HCC2998, Co (Colon)
MKN28 = assay: JFCR39 cancer cell growth inhibition test, MKN28; type: cell-based; details: Homo sapiens, MKN-28; MKN28, St (Stomac)
DLD-2 colon cancer = details: in vivo; cited from earlier work
UMP levels = details: after treatment with 25 μM NSC368390; cited from earlier work
[5] = system: human MX-1 breast, LX-1 lung, BL/STX-1 stomach and CX-1 colon carcinomas; details: nude mice, 20 to 40 mg/kg/day; MX-1, LX-1, BL/STX-1, CX-1; cited from earlier work
[6] = read-out: IC50 DLD-1 [μM] 1% O2 glc(−)gln(−), DLD-1, 1% O2 glc(−)gln(−), 24 hours
[7] = read-out: IC50 DLD-1 [μM] 1% O2 glc(−)gln(−), DLD-1, 1% O2 glc(−)gln(−), 48 hours
[8] = read-out: IC50 [μM] 1% O2 glc(−)gln(−), 1% O2 glc(−)gln(−)

inhibition at 0.2 µM (human DHOD [1]) [%] | IC50 (human DHOD [1]) [nM] | Selectivity = 21% glc(+)gln(+) IC50/1% glc(−)gln(−) IC50 ([2]; DLD-1, 24 hours) | Selectivity = 21% glc(+)gln(+) IC50/1% glc(−)gln(−) IC50 ([2]; DLD-1, 48 hours) | IC50 [2, 6] [µM] | IC50 [2, 7] [µM] | IC50 (bovine complex II-III) [nM] | inhibition at 0.1 µM (human DHOD [3]) [%] | GI50 (KM-12) [µM] | GI50 (OVCAR-8) [µM] | GI50 (MKN74) [µM] | SMILES | Selectivity = 21% glc(+)gln(+) IC50/1% glc(−)gln(−) IC50 [4] | IC50 [4, 8] [µM] | further results
100 | 4.2 | >59 | >156 | 1.7 | 0.64 | 1900 | 100 | 6.4 | 4.4 | – | COC(=O)/C(C)=C/CC/C(C)=C/Cc1c(O)c(Cl)c(C)c(C=O)c1O [275-10-COOMe, Methyl (2E,6E)-8-(3-chloro-5-formyl-2,6-dihydroxy-4-methyl)phenyl-2,6-dimethyl-2,6-octa dienoate] | >32 | – | –
75 | 64 | – | – | – | – | – | 107 | 32 | – | – | C/C(=C\Cc1c(O)c(Cl)c(C)c(C=O)c1O)CC/C=C(\C)C(C)O (stereo not drawn) [277-9-OH, 3-Chloro-4,6-dihydroxy-2-methyl-5-(2E,6E)-(8-hydroxy-3,7-dimethyl-2,6-nonadienyl)benzaldehyde] | – | – | –
97 | 6.5 | >53 | >109 | 1.9 | 0.92 | 4500 | 103 | 5.7 | – | – | CC(=O)OC(C)/C(C)=C/CC/C(C)=C/Cc1c(O)c(Cl)c(C)c(C=O)c1O (stereo not drawn) [277-11-OAc, (3E,7E)-9-(3-Chloro-5-formyl-2,6-dihydroxy-4-methyl)phenyl-3,7-dimethyl-3,7-nonadien-2-yl acetate] | >25 | 4 | GI50 (L0X-IMVI): 1500 nM
104 | 6 | 1100 | 1480 | 0.069 | 0.025 | 260 | 94 | 2 | – | 1.3 | CC(C)=CCC/C(C)=C/CC/C(C)=C/Cc1c(O)c(Cl)c(C)c(C=O)c1O [280-12, (E,E)-3-Chloro-4,6-dihydroxy-5-(3,7,11-trimethyl-2,6,10-dodecatienyl)-2-methylbenzaldehyde] | 353 | 0.17 | IC50 ([2]; DLD-1, 21% O2 glc(+)gln(+), 24 hours, read-out: IC50 DLD-1 [μM] 21% O2 glc(+)gln(+)): 76 µM; IC50 ([2]; DLD-1, 21% O2 glc(+)gln(+), 48 hours, read-out: IC50 DLD-1 [μM] 21% O2 glc(+)gln(+)): 37 µM; IC50 ([4]; 21% O2 glc(+)gln(+), read-out: IC50 [μM] 21% O2 glc(+)gln(+)): 60 µM
101 | 21.5 | – | – | – | – | – | 109 | 10 | 9.1 | 14 | C/C(=C\COC(=O)C(C)C)CC/C(C)=C/Cc1c(O)c(Cl)c(C)c(C=O)c1O [287-12-OCOiPr, (2E,6E)-8-(3-Chloro-5-formyl-2,6-dihydroxy-4-methylphenyl)-3,6-dimethyl-2,6-octa dienyl isobutylate] | – | – | GI50 (HCC2998): 15 µM; melting point: 62 to 63 °C; GI50 (MKN28): 10 µM
– | – | – | – | – | – | – | – | – | – | – | Cc1c(-c2ccc(-c3ccccc3F)cc2)nc2ccc(F)cc2c1C(=O)[O-].[Na+] [NSC368390, 6-Fluoro-2-(2′-fluoro-1,1′-biphenyl-4-yl)-3-methyl-4-quinolinecarboxylic Acid Sodium Salt] | – | – | growth inhibition of DLD-2 colon cancer (DLD-2 colon cancer): 98%; reduction of UMP levels (UMP levels): 50%; inhibition of the growth of human carcinomas [5]: ≥ 90%
